Results on eight compounds are retold here after US8524740B2, “Synthesis and anticancer activity of aryl and heteroaryl-quinolin derivatives” (Tairx, Inc., priority 2010, dated 2013).

In one series the test system is H460. Kind of series: MTT assay, H460 cells. Type of series: cell-based. The settings on record: Homo sapiens, NCI-H460, MTT. Summed up:
(§1)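 H460 and Detroit 551 cells exposed to test compounds for 48 h (vehicle control); growth measured by MTT reduction, 2 h MTT incubation, formazan dissolved in DMSO, absorbance at 570 nm.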
(In general: Tetrazolium assays rely on reduction of a dye to a coloured formazan, in cell work by metabolically active cells.)

The next series deals with HL-60. Kind of series: MTT assay, HL-60 cells. The settings on record: Homo sapiens. Type of series: cell-based. A digest of the protocol: (§2)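 Cells exposed to compounds for 48 h (other runs: indicated periods), then washed with PBS and given MTT for 2 h. Formazan dissolved in DMSO and read at 570 nm as a measure of cell growth.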
Another series deals with Detroit 551. Nature of the series: MTT assay, Detroit 551 normal human cells. Type of series: cell-based. The settings on record: Detroit 551, MTT. Summed up:
as §1

The subject of another series is Hep3B. Kind of series: MTT assay, Hep 3B cells. Type of series: cell-based. Particulars: Homo sapiens. Summed up: as §2
The conditions of series [1]: oral and intravenous administration (CHM-2133-P); cited from earlier work.
Another series has as its system HCT116. Nature of the series: MTT assay, HCT-116 cells. Particulars: Homo sapiens. It counts as cell-based. As to the method:
MTT (3-(4,5-Dimethylthiazol-2-yl)-2,5-diphenyltetrazolium bromide) assays.^21,22 HL-60, HCT-116, Hep 3B, H460, Detroit 551 and HT29/FuR cells were treated with tested compounds for the indicated periods. After treatment, cells were washed once with PBS and incubated with MTT (Sigma, St. Louis, Mo., USA) for 2 h. The formazan precipitate was dissolved in 150 μL of DMSO, and the absorbance was measured with an ELISA reader at 570 nm.
(§3) MTT (3-(4,5-Dimethylthiazol-2-yl)-2,5-diphenyltetrazolium bromide) assays. HL-60, HCT-116, A549, Hep 3B, KB, Kb-VIN and DU145 cells were treated with tested compounds for the indicated periods. After treatment, cells were washed once with PBS and incubated with MTT (Sigma, St. Louis, Mo., USA) for 2 h. The formazan precipitate was dissolved in 150 μL of DMSO, and the absorbance was measured with an ELISA reader at 570 nm.

The conditions of series [2]: previous report; cited from earlier work.
The nature of series [3]: Body weight monitoring in Hep3B xenograft nude mice. Type of series: in vivo, Balb/c Nude mice. Particulars: during the course of antitumor evaluation (28 days). As to the method: (§4) In the xenotraft tumor model of human hepatocellular carcinoma cell lines (Hep-3B, ATCC HB-8064) in male Balb/c Nude mice, the compounds 49 at doses at 7.5, 15 and 30 mg/kg (i.v. or p.o., bid) was administered five days per week for four consecutive weeks by p.o, or i.v. and ceased at Day 28. The compounds 52 at doses at 7.5, 15 and 30 mg/kg (i.v. or p.o., qd) was administered five days per week for four consecutive weeks and ceased at Day 28. The tumor size, body weight was monitored and recorded for 28 days. Human hepatocellular carcinoma cells (HEP-3B ATCC HB-8064) with 2×10^6 cells in 0.1 ml were injected subcutaneously into the right flank of the mice. When the tumor growth reached >100 mm^3 in volume (assumed as day 0), the tumor-bearing animals were assigned into several groups (8 animals in each group) for study.
(§5) The body weight and tumor size were measured and recorded every 7 days during the experimental periods of 28 days. Tumor volume (mm^3) was estimated according to the formula of length×[…]×0.5 in mm^3. Tumor growth inhibition was calculated as T/C (treatment/control) by the following formula: T/C=(Tn−T0)/(Cn−C0)×100% (T0: Tumor volume of treated group in Day 0; Tn: Tumor volume of treated group in Day n; C0: Tumor volume of control group in Day 0; Cn: Tumor volume of control group in Day n).
In the xenograft tumor model of human hepatocellular carcinoma cell lines (Hep-3B, ATCC HB-8064) in male Balb/c Nude mice, compound 147 prepared in 9% (w/v) NaHCO3 solution at doses of 7.5, 15 and 30 mg/kg -i.v.or p.o., qd) was administered five days per week for four consecutive weeks and ceased at Day 28. The tumor size and body weight were monitored and recorded for 28 days. Human hepatocellular carcinoma cells (HEP-3,ATCC HB-8064) with 2 ×10^6 cells in 0.1 mL were injected subcutaneously into the right flank of the mice. […]
The body weight and tumor size were measured and recorded every seven days during the experiment periods of 28 days. […]

Series [4] deals with Hep-3B human hepatocellular carcinoma xenograft. Nature of the series: In vivo antitumor activity assay, Hep3B xenograft nude mice. Further details: species or system Balb/c Nude mice. The settings on record: for Hep3B tumor growth suppression compared with doxorubicin: 7.5 mg/kg/day p.o., doxorubicin 10 mg/kg p.o.; for antitumor activity by i.v. route compared with p.o. route: i.v., 7.5, 15, 30 mg/kg qd; for inhibition of Hep3B tumor growth (dose and time dependence): p.o., 7.5, 15, 30 mg/kg/day. As to the method:
The Hep-3B tumor cell line was purchased from American Type Culture Collection (ATCC™HB-8064, human hepatocellular carcinoma cells). The culture medium contained DMEM, 90%; Fetal Bovine Serum, 10% and 1% penicillin-streptomycin. The tumor cells were incubated in an atmosphere containing 5% CO2 at 37° C.
Balb/c Nude mice used in this study were male, 4-6 weeks age, weighing 18-20 g and provided by National Animal Center. All animals were housed in Individually Ventilated Cages Racks (IVC Racks, 36 Mini Isolator system) under Specific Pathogen-Free (SPF) condition throughout the experiment. Each cage (in cm, 26.7 length×20.7 width×14.0 height) was sterilized with autoclave and contained 8 mice, and then the animals were maintained in a hygienic environment under controlled temperature (20-24° C.) and humidity (40%-70%) with 12 hour light/dark cycle. The animals were given free access to sterilized lab chow and sterilized distilled water ad libilum. All aspects of this work, i.e., housing, experimentation and disposal of animals were performed in general accordance with the Guide for the Care and Use of Laboratory Animals (National Academy Press, Washington, D.C., 1996).
as §4, §5
The Hep-3B tumor cell line was purchased from American Type Culture Collection (ATCC HB-8064, human hepatocellular carcinoma cells). A culture medium of 90% DMEM, 10% Fetal Bovine Serum, supplemented with 1% penicillin-streptomycin, was used. The tumor cells were incubated in an atmosphere containing 5% CO2 at 37° C.
Balb/c Nude mice used in this stud were male, 4-6 weeks age, weighing 18-20 g and provided by National Animal Center. All animals were housed in individually ventilated cages racks (IVC Racks, 36 Mini Isolator system) under specific pathogen-free (SPF) conditions throughout the experiment. Each cage (in cm, 26.7 length×20.7 width×14.0 height) was sterilized with autoclave and contained eight mice. The animals were maintained in a hygienic environment under controlled temperature (20-24° C.) and humidity (40% -70%) with a 12 hour light/dark cycle. The animals were given free access to sterilized lab chow and sterilized distilled water ad libitum. All aspects of this work, i.e., housing, experimentation and disposal of animals, were performed in general accordance with the Guide for the Care and Use of Laboratory Animals (National Academy Press, Washington, D.C., 1996). […]

The subject of the next series is Kb-VIN. Nature of the series: MTT assay, Kb-VIN cells. Type of series: cell-based. Particulars: Homo sapiens, KBVIN, Table 5. As to the method:
as §3

The next series relates to A549. Kind of series: MTT assay, A549 cells. Type of series: cell-based. The settings on record: Homo sapiens, Table 5. As to the method: as §3
The test system of the next series is DU145. Kind of series: MTT assay, DU145 cells. Type of series: cell-based. Particulars: Homo sapiens, DU-145, Table 5. As to the method: as §3
The subject of a further series is KB. Kind of series: MTT assay, KB cells. Type of series: cell-based. Particulars: Homo sapiens, Table 5. As to the method:
as §3

In a further series the test system is A498. Kind of series: MTT assay, A498 cells. It counts as cell-based. Particulars: Homo sapiens, Table 6. As to the method:
(§6) MTT (3-(4,5-Dimethylthiazol-2-yl)-2,5-diphenyltetrazolium bromide) assays. HL-60, Hep 3B, H460, A498, Colo205 and Detroit 551 cells were treated with tested compounds for the indicated periods. After treatment, cells were washed once with PBS and incubated with MTT (Sigma, St. Louis, Mo., USA) for 2 h. The formazan precipitate was dissolved in 150 μL of DMSO, and the absorbance was measured with an ELISA reader at 570 nm.

In another series the test system is Colo205. Nature of the series: MTT assay, Colo205 cells. It counts as cell-based. The settings on record: Homo sapiens, COLO 205, Table 6. As to the method:
as §6

By IC50 is commonly meant the point on the concentration scale where inhibition reaches its midpoint. Low values mean inhibition by little substance, high ones a need for much substance. For `O=c1cc(-c2ccccc2F)[nH]c2cc3c(cc12)OCO3` [CHM-2133, 2-(2-fluorphenyl)-6,7-methylenedioxyquinolin-4-one, reference compound], the IC50 in the series on H460 (Table 1, 48 h) turned out to be 140 nM; with HL-60 (Table 1, 48 h, MTT) it was 80 nM; with Detroit 551 (Table 1, 48 h, normal human cell), 8200 nM; with Hep3B (Table 1, 48 h, MTT), 130 nM; with HCT116 (Table 1, 48 h), 150 nM. In addition, in series [1], the “antitumor activity in vivo (earlier work)” value is on record as “excellent antitumor activity”.
In the case of `O=P(O)(O)Oc1cc(-c2ccccc2F)nc2cc3c(cc12)OCO3` [CHM-2133-P], the bio-conversion following administration result in series [2] is “rapid bio-conversion into its active molecule CHM-2133”. Further, the “antitumor activity in vivo (earlier work)” value in series [1] is “excellent antitumor activity”.
For the compound `COc1ccc2nc(-c3cccc(F)c3)cc(OP(=O)(O)O)c2c1OP(=O)(O)O` [Compound 49, 2-(3-Fluorophenyl)-6-methoxyquinoline-4,5-diyl bis(dihydrogen phosphate)], the body weight changes entry in series [3] is listed as “no significant body weight changes”. The “antitumor activity compared with doxorubicin” value in [4] (7.5 mg/kg i.v. or p.o., bid, doxorubicin 5 mg/kg i.v. qd, 10 mg/kg p.o. qd) is “exceeded that of doxorubicin”. Moreover, the “antitumor activity (dose and time dependence)” value in [4] (7.5, 15 and 30 mg/kg, i.v. or p.o., bid, five days per week for four weeks) is “dose- and time-dependent manner”.
Consider `COc1ccc2[nH]c(-c3cccc(F)c3)cc(=O)c2c1OP(=O)(O)O` [Compound 52, 2-(3-Fluorophenyl)-6-methoxy-4-oxo-1,4-dihydroquinolin-5-yl dihydrogen phosphate], for which the body weight changes result in series [3] is “no significant body weight changes”. For the same compound, in [4], the “Hep3B tumor growth suppression compared with doxorubicin” value is listed as “Significant tumor growth suppression”; the “antitumor activity by i.v. route compared with p.o. route” value was “slight better antitumor activity”; the “inhibition of Hep3B tumor growth (dose and time dependence)” value was “dose- and time-dependent inhibition”. In [4] (30 mg/kg/day oral dosing), the tumor suppression entry is on record as “Near complete tumor suppression”.
On to `O=c1cc(-c2cccc(OP(=O)(O)O)c2)[nH]c2ccc(N3CCCC3)cc12` [Compound 147, 3-(4-Oxo-6-(pyrrolidin-1-yl)-1,4-dihydroquinolin-2-yl)phenyl dihydrogen phosphate], for which, in [3], the body weight changes entry was “no significant body weight changes”. Besides, in series [4], the “Hep3B tumor growth suppression compared with doxorubicin” value is “exceed that of 10 mg/kg doxorubicin”; the “antitumor activity by i.v. route compared with p.o. route” value is given as “slightly greater activity”; the “inhibition of Hep3B tumor growth (dose and time dependence)” value was “dose- and time-dependent inhibition”. The “weight of Hep3B tumor relative to control” value in series [4] (30 mg/kg p.o., % of that of the control) came out at 26.3%.
On to `O=c1cc(-c2cccc3ccccc23)[nH]c2cc3c(cc12)OCO3` [Compound 151, 2-(1-Naphthalenyl)-6,7-methylenedioxyquinolin-4-one], for which the IC50 was 190 nM in the series on Kb-VIN; 130 nM in the series with A549; 70 nM with HL-60 (Table 5, MTT); 130 nM with DU145; 70 nM in the series on Hep3B (Table 5, MTT); 130 nM in the series with KB. In addition, in the series on HCT116 (Table 5), the IC50 was found to be 70 nM.
Consider `O=c1cc(-c2coc3ccccc23)[nH]c2cc3c(cc12)OCO3` [Compound 156, 2-(3-Benzo[b]furyl)-6,7-methylenedioxyquinolin-4-one], for which the IC50 in the series with Kb-VIN was 590 nM; with A549, 2980 nM; in the series with HL-60 (Table 5, MTT) it was 30 nM; in the series with DU145, 1870 nM; with Hep3B (Table 5, MTT), 90 nM; in the series with KB, 1050 nM. In the series with HCT116 (Table 5), this compound had an IC50 of 50 nM.
The melting point is the temperature, or range, at which the solid turns liquid. `COc1cc(O)cc(-c2cc(=O)c3cc4c(cc3[nH]2)OCO4)c1` [Compound 166, 2-(3-Hydroxy-5-methoxyphenyl)-6,7-methylenedioxyquinolin-4-one]: the melting point is over 300 °C. For the same compound, in the series with H460 (Table 6), the IC50 is over 50000 nM. In the series on HL-60 (Table 6, MTT), the IC50 was found to be 400 nM. This compound displayed an IC50 in the series with A498 of over 50000 nM. Further, the IC50 in the series with Detroit 551 (Homo sapiens, Table 6) is over 50000 nM. This compound also registered an IC50 with Hep3B (Table 6, MTT) of over 50000 nM. This compound also displayed an IC50 in the series with Colo205 of over 50000 nM.
